Columns and labels:
[1] = system: galium; assay: Test D pre-/postemergence herbicide test; format: in vivo, Galium aparine; conditions: for Plant response rating, Galium: scale 0 to 100 (0 no effect, 100 complete control); for Plant response rating: Galium, scale 0 to 100
Summary of the method: (§1)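 Seeds sown in silt loam were sprayed preemergence with test chemicals in a non-phytotoxic solvent mixture with surfactant. Postemergence plants grown in peat/vermiculite medium were treated at 2–18 cm (1- to 4-leaf stage). After 7 to 21 days in a controlled environment, injury was rated visually versus controls, 0 (no effect) to 100 (complete control).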

[2] = system: buckwheat, wild; assay: Test D pre-/postemergence herbicide test; format: in vivo, Polygonum convolvulus; conditions: for Plant response rating, Buckwheat, Wild: scale 0 to 100 (0 no effect, 100 complete control); for Plant response rating: Buckwheat, Wild, scale 0 to 100
Summary of the method: as §1

[3] = system: oat, wild; assay: Test D pre-/postemergence herbicide test; format: in vivo, Avena fatua; conditions: for Plant response rating, Oat, Wild: Preemergence, scale 0 to 100 (0 no effect, 100 complete control); for Plant response rating: Postemergence, Oat, Wild, scale 0 to 100
Summary of the method: as §1

[4] = system: windgrass; assay: Test D pre-/postemergence herbicide test; format: in vivo, Apera spica-venti; conditions: for Plant response rating, Windgrass: Preemergence, scale 0 to 100 (0 no effect, 100 complete control); for Plant response rating: Postemergence, Windgrass, scale 0 to 100
Summary of the method: as §1

[5] = system: waterhemp; assay: Test E preemergence herbicide test; format: in vivo, Amaranthus rudis; parameters: key: 0 = no effect, 100 = complete control
Text: (§2) Seeds of plant species selected from corn (Zea mays), soybean (Glycine max), velvetleaf (Abutilon theophrasti), lambsquarters (Chenopodium album), wild poinsettia (Euphorbia heterophylla), pigweed, palmer (palmer pigweed, Amaranthus palmeri), waterhemp (common waterhemp, Amaranthus rudis), surinam grass (Brachiaria decumbens), crabgrass, large (large crabgrass, Digitaria sanguinalis), crabgrass, Brazil (Brazilian crabgrass, Digitaria horizontalis), panicum, fall (fall panicum, Panicum dichotomiflorum), foxtail, giant (giant foxtail, Setaria faberii), foxtail, green (green foxtail, Setaria viridis), goosegrass (Eleusine indica), johnsongrass (Sorghum halepense), ragweed (common ragweed, Ambrosia elatior), barnyardgrass (Echinochloa crus-galli), sandbur (southern sandbur, Cenchrus echinatus), arrowleaf […] rhombifolia), ryegrass, Italian (Italian ryegrass, Lolium multiflorum), dayflower, VA (Virginia dayflower, Commelina virginica), field bindweed (Convolvulus arvensis), morningglory (Ipomoea coccinea), nightshade (eastern black nightshade, Solanum ptycanthum), kochia (Kochia scoparia), nutsedge, yellow (yellow nutsedge, Cyperus esculentus), cocklebur (common cocklebur, Xanthium strumarium), smartweed (ladysthumb smartweed, Polygonum Persicaria) and beggarticks (hairy beggarticks, Bidens pilosa), were planted into a silt loam soil and treated preemergence with test chemicals formulated in a non-phytotoxic solvent mixture which included a surfactant. Treated plants and controls were maintained in a greenhouse for 21 days, after which time all species were compared to controls and visually evaluated. Plant response ratings, summarized in Table E, are based on a scale of 0 to 100 where 0 is no effect and 100 is complete control. A dash (-) response means no test result.

[6] = system: crabgrass, large; assay: Test E preemergence herbicide test; format: in vivo, Digitaria sanguinalis; parameters: key: 0 = no effect, 100 = complete control
Summary of the method: (§3)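 Planted in silt loam; preemergence spray, non-phytotoxic solvent/surfactant formulation; greenhouse 21 d; visual score 0–100 vs controls.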

[7] = system: foxtail, green; assay: Test E preemergence herbicide test; format: in vivo, Setaria viridis; parameters: key: 0 = no effect, 100 = complete control
Text: as §2

[8] = system: ragweed; assay: Test E preemergence herbicide test; format: in vivo, Ambrosia elatior; parameters: key: 0 = no effect, 100 = complete control
Text: as §2

[9] = system: barnyardgrass; assay: Test E preemergence herbicide test; format: in vivo, Echinochloa crus-galli; parameters: key: 0 = no effect, 100 = complete control
Summary of the method: as §3

[10] = system: kochia; assay: Test E preemergence herbicide test; format: in vivo, Kochia scoparia; parameters: key: 0 = no effect, 100 = complete control
Summary of the method: as §3

SMILES: O=C1NC[C@H](c2cccc(C(F)(F)F)c2)[C@H]1C(=O)Nc1ccccc1F [Compound 204, (3R,4S)—N-(2-fluorophenyl)-2-oxo-4-[3-(trifluoromethyl)phenyl]-3-pyrrolidinecarboxamide]
- Plant response rating, Galium ([1]; Preemergence, 62 g ai/ha): 10
- Plant response rating, Galium ([1]; Preemergence, 125 g ai/ha): 10
- Plant response rating, Galium ([1]; Preemergence, 31 g ai/ha): 0
- Plant response rating ([1]; Preemergence, 250 g ai/ha): 25
- Plant response rating, Buckwheat, Wild ([2]; Preemergence, 62 g ai/ha): 25
- Plant response rating, Buckwheat, Wild ([2]; Preemergence, 125 g ai/ha): 25
- Plant response rating, Buckwheat, Wild ([2]; Preemergence, 31 g ai/ha): 20
- Plant response rating ([2]; Preemergence, 250 g ai/ha): 25
- Plant response rating, Oat, Wild ([3]; 62 g ai/ha): 25
- Plant response rating, Oat, Wild ([3]; 125 g ai/ha): 60
- Plant response rating, Oat, Wild ([3]; 31 g ai/ha): 0
- Plant response rating, Oat, Wild ([3]; 250 g ai/ha): 40
- Plant response rating, Windgrass ([4]; 62 g ai/ha): 65
- Plant response rating, Windgrass ([4]; 125 g ai/ha): 85
- Plant response rating, Windgrass ([4]; 31 g ai/ha): 50
- Plant response rating, Windgrass ([4]; 250 g ai/ha): 95
- Plant response rating, Waterhemp ([5]; 31 g ai/ha): 0
- Plant response rating, Waterhemp ([5]; 62 g ai/ha): 0
- Plant response rating, Waterhemp ([5]; 125 g ai/ha): 0
- Plant response rating, Waterhemp ([5]; 250 g ai/ha): 0
- Plant response rating, Crabgrass, Large ([6]; 31 g ai/ha): 95
- Plant response rating, Crabgrass, Large ([6]; 62 g ai/ha): 98
- Plant response rating, Crabgrass, Large ([6]; 125 g ai/ha): 98
- Plant response rating, Crabgrass, Large ([6]; 250 g ai/ha): 98
- Plant response rating, Foxtail, Green ([7]; 31 g ai/ha): 40
- Plant response rating, Foxtail, Green ([7]; 62 g ai/ha): 98
- Plant response rating, Foxtail, Green ([7]; 125 g ai/ha): 95
- Plant response rating, Foxtail, Green ([7]; 250 g ai/ha): 98
- Plant response rating, Ragweed ([8]; 31 g ai/ha): 0
- Plant response rating, Ragweed ([8]; 62 g ai/ha): 0
- Plant response rating, Ragweed ([8]; 125 g ai/ha): 0
- Plant response rating, Ragweed ([8]; 250 g ai/ha): 0
- Plant response rating, Barnyardgrass ([9]; 31 g ai/ha): 20
- Plant response rating, Barnyardgrass ([9]; 62 g ai/ha): 75
- Plant response rating, Barnyardgrass ([9]; 125 g ai/ha): 98
- Plant response rating, Barnyardgrass ([9]; 250 g ai/ha): 98
- Plant response rating, Kochia ([10]; 31 g ai/ha): 0
- Plant response rating, Kochia ([10]; 62 g ai/ha): 0
- Plant response rating, Kochia ([10]; 125 g ai/ha): 90
- Plant response rating, Kochia ([10]; 250 g ai/ha): 40

SMILES: O=C1NCC(c2ccc(C(F)(F)F)cc2)C1C(=O)Nc1cccc(F)c1F (racemic) [Compound 202]
- Plant response rating ([1]; Postemergence, 31 g ai/ha): 60
- Plant response rating ([1]; Postemergence, 62 g ai/ha): 70
- Plant response rating ([1]; Postemergence, 125 g ai/ha): 70
- Plant response rating ([1]; Postemergence, 250 g ai/ha): 70
- Plant response rating, Galium ([1]; Preemergence, 62 g ai/ha): 70
- Plant response rating, Galium ([1]; Preemergence, 31 g ai/ha): 75
- Plant response rating ([1]; Preemergence, 125 g ai/ha): 80
- Plant response rating ([1]; Preemergence, 250 g ai/ha): 85
- Plant response rating ([2]; Postemergence, 31 g ai/ha): 0
- Plant response rating ([2]; Postemergence, 62 g ai/ha): 0
- Plant response rating ([2]; Postemergence, 125 g ai/ha): 0
- Plant response rating ([2]; Postemergence, 250 g ai/ha): 10
- Plant response rating, Buckwheat, Wild ([2]; Preemergence, 62 g ai/ha): 10
- Plant response rating, Buckwheat, Wild ([2]; Preemergence, 31 g ai/ha): 0
- Plant response rating ([2]; Preemergence, 125 g ai/ha): 10
- Plant response rating ([2]; Preemergence, 250 g ai/ha): 15
- Plant response rating ([3]; 31 g ai/ha): 5
- Plant response rating ([3]; 62 g ai/ha): 10
- Plant response rating ([3]; 125 g ai/ha): 10
- Plant response rating ([3]; 250 g ai/ha): 15
- Plant response rating, Oat, Wild ([3]; 62 g ai/ha): 20
- Plant response rating, Oat, Wild ([3]; 125 g ai/ha): 35
- Plant response rating, Oat, Wild ([3]; 31 g ai/ha): 5
- Plant response rating, Oat, Wild ([3]; 250 g ai/ha): 40
- Plant response rating ([4]; 31 g ai/ha): 0
- Plant response rating ([4]; 62 g ai/ha): 10
- Plant response rating ([4]; 125 g ai/ha): 35
- Plant response rating ([4]; 250 g ai/ha): 45
- Plant response rating, Windgrass ([4]; 62 g ai/ha): 85
- Plant response rating, Windgrass ([4]; 125 g ai/ha): 90
- Plant response rating, Windgrass ([4]; 31 g ai/ha): 65
- Plant response rating, Windgrass ([4]; 250 g ai/ha): 90
- Plant response rating, Waterhemp ([5]; 31 g ai/ha): 50
- Plant response rating, Waterhemp ([5]; 62 g ai/ha): 60
- Plant response rating, Waterhemp ([5]; 125 g ai/ha): 95
- Plant response rating, Waterhemp ([5]; 250 g ai/ha): 95
- Plant response rating, Crabgrass, Large ([6]; 31 g ai/ha): 98
- Plant response rating, Crabgrass, Large ([6]; 62 g ai/ha): 98
- Plant response rating, Crabgrass, Large ([6]; 125 g ai/ha): 98
- Plant response rating, Crabgrass, Large ([6]; 250 g ai/ha): 98
- Plant response rating, Foxtail, Green ([7]; 31 g ai/ha): 10
- Plant response rating, Foxtail, Green ([7]; 62 g ai/ha): 75
- Plant response rating, Foxtail, Green ([7]; 125 g ai/ha): 98
- Plant response rating, Foxtail, Green ([7]; 250 g ai/ha): 98
- Plant response rating, Ragweed ([8]; 31 g ai/ha): 20
- Plant response rating, Ragweed ([8]; 62 g ai/ha): 80
- Plant response rating, Ragweed ([8]; 125 g ai/ha): 85
- Plant response rating, Ragweed ([8]; 250 g ai/ha): 90
- Plant response rating, Barnyardgrass ([9]; 31 g ai/ha): 40
- Plant response rating, Barnyardgrass ([9]; 62 g ai/ha): 80
- Plant response rating, Barnyardgrass ([9]; 125 g ai/ha): 85
- Plant response rating, Barnyardgrass ([9]; 250 g ai/ha): 98
- Plant response rating, Kochia ([10]; 31 g ai/ha): 95
- Plant response rating, Kochia ([10]; 62 g ai/ha): 95
- Plant response rating, Kochia ([10]; 125 g ai/ha): 95
- Plant response rating, Kochia ([10]; 250 g ai/ha): 98

Source: US10294202B2, “Pyrrolidinones as herbicides” (FMC Corporation, priority 2013, dated 2019)
